# From patent US9381243B2, “Methods of identifying critically ill patients at increased risk of development of organ failure and compounds for the treatment hereof” (Rigshospitalet, priority 2008, dated 2016)
# Key:
# [1] = depends on administration form and/or dosage; cited from earlier work
# [2] = tested on: whole blood haemostatic activity; test: Whole blood viscoelastical assay (TEG) during Flolan infusion; type: in vivo, human; conditions: 6 healthy volunteers, 4 ng/kg/min IV, after 60 and 120 min infusion
# Source text: The TEG analyzer uses a small whole blood sample in a rotating cup and a pin suspended in the blood by a torsion wire, which is monitored for motion. To speed up the clot formation, a standardized amount of an activator of coagulation (e.g. Kaolin, tissue factor) may be added to the cup just before the pin is placed in the cup. The torque of the rotating cup is transmitted to the immersed pin only after fibrin and/or fibrin-platelet bonding has linked the cup and pin together. The strength and rate of these bonds affect the magnitude of the pin motion such that strong clots move the pin directly in phase with cup motion. Thus, the TEG technology documents the interaction of platelets with the protein coagulation cascade from the time of placing the blood in the analyzer until initial fibrin formation, clot rate strengthening and fibrin-platelet bonding via GPIIb/IIIa, through eventual clot lysis. […]
# With regard to the TEG assay this was performed as recommended by the manufacturer and 340 μl are mixed with 20 μl CaCl 0.2 M (final concentration 11.1 mM in the cup) and kaolin at 37° C. after which the haemostatic activity is recorded as depicted in FIG. 1.
# [3] = tested on: platelet aggregation in whole blood; test: Whole blood platelet aggregation (Multiplate) during Flolan infusion; type: in vivo, human; conditions: 6 healthy volunteers, 4 ng/kg/min IV, after 60 and 120 min infusion
# Method: Six healthy volunteers were administered flolan (prostacyclin) intravenously at a dose of 4 ng/kg/min for 2 h. Blood samples for whole blood viscoelastical assay (Thrombelastography [TEG]) and whole blood platelet aggregation (Multiplate) was obtained before infusion of Flolan, after 60 min infusion of Flolan and after 120 min infusion of Flolan.
# Whole blood impedance aggregometry analyzed by the Multiple Platelet function Analyzer (MultiPlate® analyzer). Analysis employing various platelet agonists: ASPItest (activation by arachidonic acid), COLtest (activation by collagen through the collagen receptor), TRAPtest (activation by TRAP-6 stimulates the thrombin receptor on the platelet surface and ADPtest (activation by ADP stimulates platelet activation by the ADP receptors).
# MultiPlate continuously records platelet aggregation. The increase of impedance by the attachment of platelets onto the Multiplate sensors is transformed to arbitrary aggregation units (AU) and plotted against time as depicted in FIG. 2.
# [4] = tested on: critically ill patients admitted to the ICU; test: Retrospective review of haemofiltration with or without Flolan in the filters; type: in vivo, human
# Method: Ninety-four critically ill patients admitted to the intensive care unit (ICU) underwent haemofiltration with or without concomitant Flolan (prostacyclin) treatment. Flolan was administered in a low dose of 4-6 ng/kg/min in the filters to prevent these from clotting and consequently there was only a minor spill over of Flolan to the systemic circulation. The patients were retrospectively reviewed.
# [5] = tested on: patients with severe sepsis; conditions: cited from earlier work
# [6] = Flolan 4-6 ng/kg/min in the filters, n = 24
compound,measurement,setting,value
CC#CCC(C)[C@H](O)/C=C/[C@@H]1[C@H]2c3cccc(CCCC(=O)O)c3O[C@H]2C[C@H]1O (mixture of isomers) [Beraprost],half time,[1],35 to 40 min
"CCCCC[C@H](O)/C=C/[C@@H]1[C@H]2C/C(=C/CCCC(=O)O)O[C@H]2C[C@H]1O [Flolan, prostacyclin]","TEG values (R, Angle, MA) vs baseline",[2],No significant difference
same,"Multiplate values (ASPI, COL, ADP, TRAP) vs baseline",[3],no significant difference
same,half time,[1],0.5 to 3 min
same,90 day survival (%),[4]; [6],67%
same,Platelet count (difference before vs. after haemofiltration),[4]; [6],+14
same,haemostatic competence as evaluated by transfusion requirements,[4]; critically ill patients undergoing haemofiltration,does not negatively influence
same,mortality at 30 days,"[4]; vs. 39% non-flolan, p=0.12",21%
same,mortality at 90 days,"[4]; vs. 53% non-flolan, p=0.10",34%
same,mortality at 365 days,"[4]; vs. 57% non-flolan, p=0.09",38%
CC#CCC(C)[C@H](O)/C=C/[C@@H]1[C@H]2C/C(=C/CCCC(=O)O)C[C@H]2C[C@H]1O (some centres unmarked) [Iloprost],half time,[1],20 to 30 min
CSCCNc1nc(SCCC(F)(F)F)nc2c1ncn2[C@@H]1O[C@H](COP(=O)(O)OP(=O)(O)C(Cl)(Cl)P(=O)(O)O)[C@@H](O)[C@H]1O [cangrelor],half time,[1],3 to 5 min
Tifacogin: recombinant tissue factor pathway inhibitor,All cause mortality,"[5]; 1754 patients, severe sepsis, vs 33.9% placebo, p=0.88",34.2%
same,risk of bleeding,[5]; in vivo,increase in risk of bleeding
